Measured values from patent publication US5622972A, “Method for treating a mammal infected with respiratory syncytial virus” (priority 1996, dated 1997).
“And” between values parts separate entries of the source, which are not always exact repeats. Equal values may be shown once. Read-outs that look alike come from different tables or passages of the source.

Columns and labels:
[1] = Cytotoxicity in uninfected HEp-2 cells, single concentration of 200 μM replenished daily for 5 days; type: cell-based; settings: human, solvent PBS (ribavirin: water)
Source text: (§1) The tetrazolium based cell viability assay is based upon the ability of mitochondrial dehydrogenase which is present in viable cells to catalyze the reduction of a yellow tetrazolium salt known as MTT [3-(4,5-dimethylthiazol-2-yl)-2,5-diphenylthtiazolium bromide] to a dark blue/purple formazon product, generally as described by K. Rubino et al., J. Virological Methods, 39, 55-67 (1992)
(§2) RSV infection results in a marked reduction in cell viability and thus a lowered rate of formazan production. The assay method gives a very low absorbance value (practically zero) in wells which contain virus-infected cells and no compound or a compound which lacks anti-RSV activity. Compounds which inhibit RSV replication should prevent cell death and will therefore result in an increased intensity of color of the formazan solution. The measurement of viral growth as a function of cell viability allows the assay to be used for establishing levels of compound cytotoxicity in uninfected cells within the same assay. Thus, the assay provides a rapid colorimetric method for measuring RSV specific cytopathic effect.
(§3) The HEp-2 cells and RSV strain A2 virus which are used in the assay are publicly available and were obtained from the American Tissue Culture Collection. HEp-2 cells correspond to ATCC accession no. CCL32; and Respiratory Syncytial Virus, strain A2 corresponds to ATCC accession no. VR-1302. Respiratory syncytial virus was grown (i.e., multiplied) and titered in HEp-2 cells.
(§4) The RSV inhibition assay was carried out as follows. The assay was performed in 96 well microtiter plates seeded with 2.5×10^4 cells per well. […] Detached cells were resuspended and carefully dispersed in Minimal Essential Medium (MEM) (JRH Biosciences cat. #210-3510) containing 2% FBS (fetal bovine serum) and the concentration of viable cells was determined by trypan blue exclusion. […]
The cell suspension was divided into a first portion to which respiratory syncytial virus (RSV A2) was added at a multiplicity of infection of 1, and a second portion to which no virus was added. […] A multiplicity of infection equal to 1 was selected based on the observation this concentration of virus is just sufficient to produce a cytopathic effect that essentially eliminated MTT metabolism in infected, untreated cells during the time course of the assay (determined previously by a viral dilution assay).
(§5) After the incubation period, MTT (Sigma Chemical Co., St. Louis, Mo., Cat. #M2128) was dissolved in serum free MEM to give a 3 mg/ml solution and 100 μl of MTT solution was added to each well and the plates further incubated for 2 hours at 37° C. […] The optical density of the formazan/isopropanol solution from each well was determined using a Dynatech MR5000 multiplate reader at 570 nm with a 630 nm reference. […]

[2] = cited from earlier work
[3] = test system: respiratory syncytial virus (RSV A2); test: RSV inhibition assay: tetrazolium (MTT) based cell viability assay in RSV-infected HEp-2 cells (serial dilutions); settings: for EC50: human respiratory syncytial virus
Source text: as §1
(§6) Formazan is only slightly soluble in aqueous solutions, and therefore appears as dark cell-associated crystals. The crystals may be readily solublized in an organic solvent and the absorbance of the resulting blue/purple solution may be quantified using a multi-well plate spectrophotometer.
RSV infection results in a marked reduction in cell viability and thus a lowered rate of formazan production. […] The measurement of viral growth as a function of cell viability allows the assay to be used for establishing levels of compound cytotoxicity in uninfected cells within the same assay. Thus, the assay provides a rapid colorimetric method for measuring RSV specific cytopathic effect.
as §3
(§7) The RSV inhibition assay was carried out as follows. The assay was performed in 96 well microtiter plates seeded with 2.5×10^4 cells per well. To provide a sufficient number of cells to seed the plates, stock cultures of HEp-2 cells were first grown in tissue culture flasks to about 80-100% confluency. The cell layer was washed with room temperature PBS (without calcium and magnesium) and then trypsinized (JRH Biosciences cat. #59-22877P) in a minimal volume of trypsin solution at 37° C. to detach them from the growth surface. Detached cells were resuspended and carefully dispersed in Minimal Essential Medium (MEM) (JRH Biosciences cat. #210-3510) containing 2% FBS (fetal bovine serum) and the concentration of viable cells was determined by trypan blue exclusion. Cell density was adjusted to 2.5×10^5 viable cells/ml by further dilution in MEM+2% FBS.
(§8) Test compound(s) and positive control (ribavirin) were added and serially diluted in the microtiter plate to the desired concentrations (8 replicates/compound/concentration plus 8 control wells/plate which received no compound).
The cell suspension was divided into a first portion to which respiratory syncytial virus (RSV A2) was added at a multiplicity of infection of 1, and a second portion to which no virus was added. The virus-infected cell suspension was mixed by low speed vortexing and 100 μl of the virus-infected cell suspension was immediately added to half of the wells in the 96 well plate (corresponding to 4 replicates of each compound dilution). 100 μl of the virus-free cell suspension was added to the other half of the wells in the microtiter plate (corresponding to the other 4 replicates for each compound and dilution).
The plates were incubated at 37° C., 5% CO2 for 5 to 6 days.
After the incubation period, MTT (Sigma Chemical Co., St. Louis, Mo., Cat. #M2128) was dissolved in serum free MEM to give a 3 mg/ml solution and 100 μl of MTT solution was added to each well and the plates further incubated for 2 hours at 37° C. The reaction was stopped by aspiration of the media to chemical waste, being careful not to remove the formazan crystals, and 200 μl of isopropanol was added to the wells to dissolve the crystals.

[4] = Cytotoxicity in uninfected HEp-2 cells (MTT), same assay; type: cell-based; settings: human, hep-2 cells
Source text: as §1, §6, §2, §3, §7, §8
(§9) The cell suspension was divided into a first portion to which respiratory syncytial virus (RSV A2) was added at a multiplicity of infection of 1, and a second portion to which no virus was added. The virus-infected cell suspension was mixed by low speed vortexing and 100 μl of the virus-infected cell suspension was immediately added to half of the wells in the 96 well plate (corresponding to 4 replicates of each compound dilution). 100 μl of the virus-free cell suspension was added to the other half of the wells in the microtiter plate (corresponding to the other 4 replicates for each compound and dilution). A multiplicity of infection equal to 1 was selected based on the observation this concentration of virus is just sufficient to produce a cytopathic effect that essentially eliminated MTT metabolism in infected, untreated cells during the time course of the assay (determined previously by a viral dilution assay).
(§10) The plates were incubated at 37° C., 5% CO2 for 5 to 6 days. […]

HEp-2 cells = test: as above; type: cell-based; settings: 5 day assay, drug added on day 1, 7200 min
Source text: as §1, §6, §2, §3, §7, §8, §9, §10

[5] = test system: respiratory syncytial virus (RSV A2); type: cell-based; settings: human, hep-2 cells, 120 h, 200 µM
Source text: as §1
RSV infection results in a marked reduction in cell viability and thus a lowered rate of formazan production. The assay method gives a very low absorbance value (practically zero) in wells which contain virus-infected cells and no compound or a compound which lacks anti-RSV activity. […]
as §4, with “follows.” for “follows. The assay was performed in 96 well microtiter plates seeded with 2.5×10^4 cells per well.”
as §5

## CCCCN1CC(OC(C)=O)C(OC(C)=O)C(OC(C)=O)C1COC(C)=O [Ex. 7, 1,5-(Butylimino)-1,5-dideoxy-D-glucitol, tetraacetate]
[1]
  cytotoxicity at 120 h, 200 µM: 11%
[2]
  enzymatic conversion in vivo of prodrug: enzymatically converted in vivo to the compound of Ex. 6

## NC(=O)c1ncn([C@@H]2O[C@H](CO)[C@@H](O)[C@H]2O)n1 [ribavirin, 1-beta-D-ribofuranosyl-1H-1,2,4-triazole-3-carboxamide]
[3]; HEp-2, 120 h, HEp-2, solvent water, 5 day assay, drug replenished daily
  EC50: 0.1 µM
[3]; HEp-2, 120 h, HEp-2, solvent water, 5 day assay, drug replenished on day [number not given]
  EC50: 2.6 µM
[3]; HEp-2, HEp-2, solvent water, 6 day assay, drug added on day 1
  EC50: 19.1 µM
[4]; solvent water, 5 day assay, drug added on day 1
  CC50 at 120 h: 38.3 µM
[4]; solvent water, 5 day assay, drug replenished daily
  CC50 at 120 h: 40 µM
[4]; solvent water, 5 day assay, drug replenished on day [number not given]
  CC50 at 120 h: 20.4 µM
[4]; solvent water, 6 day assay, drug added on day 1
  CC50 at 120 h: 179 µM
HEp-2 cells; solvent water
  CC50: 32.4 µM and 62.8 µM and 52.4 µM
[5]
  % CELL PROTECTION / % CYTOTOXICITY (CTI): 1.6
[1]
  cytotoxicity at 120 h, 200 µM: 65%

## OCC1C(O)C(O)C(O)CN1CCCc1ccccc1 [compound 43, 1,5-(3-Phenylpropylimino)-1,5-dideoxy-D-glucitol]
[1]
  cytotoxicity at 120 h, 200 µM: 10%

## CCCCN1C[C@H](O)[C@@H](O)[C@H](O)[C@H]1CO [Ex. 6, 1,5-(Butylimino) -1,5-dideoxy-D-glucitol]
[3]; HEp-2, 120 h, HEp-2, solvent PBS, 5 day assay, drug replenished daily, read-out: ~EC50
  EC50: 45 µM
[3]; HEp-2, 120 h, HEp-2, solvent PBS, 5 day assay, drug replenished on day [number not given], read-out: ~EC50
  EC50: 185 µM
[3]; HEp-2, HEp-2, solvent DMSO, 6 day assay, drug added on day 1, extrapolated, read-out: ~EC50
  EC50: 250 µM
[3]; HEp-2, HEp-2, solvent PBS, 6 day assay, drug added on day 1, read-out: ~EC50
  EC50: 431 µM
[3]; solvent PBS, 5 day assay, drug added on day 1, from extrapolated CC50 and EC50
  CTI: 275.5
[3]; solvent PBS, 6 day assay, drug added on day 1, from extrapolated CC50, 7200 min
  CTI: 21.8
[4]; solvent DMSO, 5 day assay, drug added on day 1
  CC50 at 120 h: 100 µM
[4]; solvent DMSO, 6 day assay, drug added on day 1, extrapolated
  CC50 at 120 h: 365 µM
[4]; solvent PBS, 5 day assay, drug added on day 1, extrapolated
  CC50 at 120 h: 76200 µM
[4]; solvent PBS, 6 day assay, drug added on day 1, extrapolated
  CC50 at 120 h: 9400 µM
HEp-2 cells; solvent DMSO
  CC50: 156 µM
[1]
  cytotoxicity at 120 h, 200 µM: 17%
